According to patent US4996237A, “Combretastatin A-4” (Arizona Board of Regents, priority 1988, dated 1991):
“Also recorded” adds a separate entry of the source.

Columns and labels:
[1] = system: L1210 lymphocytic leukemia cell line; assay: growth inhibition of murine L1210 lymphocytic leukemia cell line; format: cell-based
[2] = system: DLD-1 human colon cancer cell line; assay: growth inhibition of human colon cancer cell line DLD-1; format: cell-based; settings: read-out: ED50, DLD-1
tubulin [3] = assay: inhibition of microtubule assembly / tubulin polymerization; format: biochemical
[4] = system: VoLo human colon cancer cell line; assay: growth inhibition of human colon cancer cell line VoLo; format: cell-based; settings: read-out: ED50, VoLo
antimitotic activity = settings: among the Combretum caffrum constituents
tubulin [5] = assay: inhibition of colchicine binding to tubulin; settings: competes with combretastatin A-1
[6] = system: HCT-15 human colon cancer cell line; assay: growth inhibition of human colon cancer cell line HCT-15; format: cell-based; settings: read-out: ED50, HCT-15
[7] = system: P388 lymphocytic leukemia cell line; assay: growth inhibition of murine P388 lymphocytic leukemia cell line (PS system); format: cell-based
tubulin [8] = settings: previously isolated from Combretum caffrum; cited from earlier work

Compound: COc1ccc(/C=C\c2cc(OC)c(OC)c(OC)c2)cc1O [Combretastatin A-4]
- activity against L1210 cell line (in words) [1]: significantly active
- IC50 ([1]; Mus musculus, L1210, read-out: ED50, growth of L1210 cell line): < 0.003 µg/mL
- antimitotic activity (in words) (antimitotic activity): strongest antimitotic agent
- activity against P388 cell line (in words) [7]: significantly active
- IC50 ([7]; Mus musculus, P388, read-out: ED50, growth of P388 cell line): < 0.003 µg/mL

Compound: COc1ccc(/C=C/c2cc(OC)c(OC)c(OC)c2)cc1O [trans-isomer]
- activity against L1210 cell line (in words) [1]: significantly active
- activity against P388 cell line (in words) [7]: significantly active

Compound: COc1ccc(/C=C\c2cc(OC)c3c(c2)OCO3)cc1O [combretastatin A-2]
- inhibition of microtubule assembly (in words), earlier isolated substances (tubulin [8]): potent inhibitors of microtubule assembly

Compound: COc1ccc(/C=C\c2cc(OC)c(OC)c(OC)c2)c(O)c1O [combretastatin A-1]
- inhibition of microtubule assembly (in words), earlier isolated substances (tubulin [8]): potent inhibitors of microtubule assembly
